Legend:
[1] = tested on: Friend Leukaemia Virus (FLV); conditions: Krieg et al. 1978; cited from earlier work
Kaposi's sarcoma (KS) = assay: Treatment of Kaposi's sarcoma in 9 patients; type: in vivo, human (patients)
Method: In this study, 9 patients diagnosed as having Kaposi's sarcoma (KS) were treated with AZT and the following effects observed.

[2] = Ostertag et al. 1974; cited from earlier work
HIV [3] = assay: AZT/Interferon combinations vs. HIV in vitro in PBMC: overall inhibition / synergy (all measures of viral replication, isobologram); type: cell-based; conditions: experiment 1, all concentrations of AZT
clinical = conditions: human, in vivo
Method: On days 2 and 3 the patients were also given 500 mg probenecid (PB) every 6 hours and a single dose of AZT was given on day 3.

[4] = tested on: thrombocytopaenia purpura; assay: Anti-ITP activity: platelet count in a patient with thrombocytopaenia purpura; type: in vivo, human (patient)
Method: A patient having a platelet count of 38,000 mm^-3 was diagnosed as having thrombocytopaenia purpura (platelet count <100,000 mm^-3) and was treated for 6 weeks with 5 mg/kg of AZT intravenously every 6 hours during which time, their platelet count rose to 140,000 mm^-3. Treatment was then changed to 5 mg/kg/4 hours orally for 4 weeks, discontinued for 4 weeks, when a drop in platelet numbers, to 93,000 mm^-3 after 2 weeks, and to 70,000 mm^-3 after 4 weeks, was seen. Treatment was recommenced at 5 mg/kg/4 hours orally for 5 weeks and the platelet count rose to 194,000 mm^-3.

E. coli CN314 = assay: In vitro antibacterial MIC and synergy studies against E. coli CN314; conditions: Escherichia coli
HIV p24 = assay: AZT/Interferon combinations vs. HIV in vitro in PBMC: HIV p24 antigen by radioimmunoassay; type: cell-based; conditions: Experiment 4-Day 14, IFNαA 0
HIV [5] = assay: AZT/Acyclovir combinations vs. HIV in vitro (protection); type: cell-based
HIV [6] = assay: AZT/Interferon combinations vs. HIV in vitro in PBMC: reverse transcriptase (RT) activity of supernatants; type: cell-based; conditions: rIFNαA 0; for mean reverse transcriptase value: Experiment 2-Day 10
[7] = tested on: vaccinia, HSVI and varicella zoster virus (VZV); conditions: De Clerq et al. 1980, incl. vaccinia; cited from earlier work
[8] = tested on: Friend Leukemia Virus (FLV); assay: Anti-Friend Leukemia Virus plaque inhibition in FG-10 cells; type: cell-based; conditions: 144 h, read-out: Azidothymidine ED50

## Cc1cn([C@H]2C[C@H](N=[N+]=[N-])[C@@H](CO)O2)c(=O)[nH]c1=O [AZT]
[1]
  activity against FLV in in vitro experiments: active against FLV
Kaposi's sarcoma (KS); 9 patients
  response: 50%
Kaposi's sarcoma (KS); of 9 patients
  patients exhibiting regression of lesions: Three
  patients in which lesions progressed: 3 patients
  patients in which the KS remained stable: 2 patients
  patients with complete cure: one
Kaposi's sarcoma (KS); vs recombinant a-interferon
  response relative to preferred current therapy: comparable to that obtained with treatment with the preferred current therapy for KS, recombinant a-interferon
[2]
  cellular toxicity: lack of cellular toxicity
HIV [3]
  inhibition of HIV: fully inhibitory
clinical
  decrease in the total body clearance (Cl/F): 3 -fold
  peak (Cmax) and trough (Cmin) levels on day 3 vs day 1: significantly higher than the corresponding levels on day 1
clinical; po, 2 mg/kg
  tl/2: 0.89 h
clinical; po, 2 mg/kg, AUC
  AUC: 3.7 µM·h
clinical; po, 2 mg/kg, Cmax
  Cmax: 3.74 µM
clinical; po, 2 mg/kg, Tmax
  Tmax: 30 min
clinical; po, 2 mg/kg, mean half-life (tl/2)
  half-life: 52.8 min
clinical; po, 2 mg/kg, tl/2
  half-life: 52.2 min
[4]; 2 weeks after discontinuation
  platelet count: 93,000 mm^-3
[4]; 4 weeks after discontinuation
  platelet count: 70,000 mm^-3
[4]; after 6 weeks 5 mg/kg i.v. every 6 hours (start 38,000)
  platelet count: 140,000 mm^-3
[4]; treatment recommenced, 5 mg/kg/4 hours orally for 5 weeks
  platelet count: 194,000 mm^-3
E. coli CN314
  MIC: 1 µg/mL
HIV p24; AZT 0.02 μM
  HIV p24: 100-200 ng protein/ml
HIV p24; AZT 0.04 μM
  HIV p24: 25-30 ng protein/ml
HIV p24; AZT 0.08 μM
  HIV p24: 11.2 ng protein/ml
HIV [5]; Human immunodeficiency virus 1, T-cell, AZT alone, 8 μM
  inhibition at 8 µM: 100%
HIV [5]; with ACV 0 μg/ml
  AZT concentration required to achieve 100% protection: 8 µM
HIV [6]; AZT 0.01 μM
  mean reverse transcriptase value: 159 cpm/10^6 cells × 10^3
HIV [6]; AZT 0.02 μM
  mean reverse transcriptase value: 110 cpm/10^6 cells × 10^3
HIV [6]; AZT 0.04 μM
  mean reverse transcriptase value: 71 cpm/10^6 cells × 10^3
HIV [6]; AZT 0.08 μM
  mean reverse transcriptase value: 31 cpm/10^6 cells × 10^3
HIV [6]; AZT 0.16 μM
  mean reverse transcriptase value: 7 cpm/10^6 cells × 10^3
HIV [6]; Experiment 3-Day 13, AZT 0.02 μM
  mean RT value: 51 cpm/10^6 cells × 10^3
HIV [6]; Experiment 3-Day 13, AZT 0.04 μM
  mean RT value: 10 cpm/10^6 cells × 10^3
HIV [6]; Experiment 3-Day 13, AZT 0.08 μM
  mean RT value: 2 cpm/10^6 cells × 10^3
HIV [6]; Experiment 3-Day 13, AZT 0.16 μM
  mean RT value: 5 cpm/10^6 cells × 10^3
HIV [6]; Experiment 4-Day 11, AZT 0.02 μM
  mean RT value: 8 cpm/10^6 cells × 10^3
HIV [6]; Experiment 4-Day 11, AZT 0.04 μM
  mean RT value: 4 cpm/10^6 cells × 10^3
HIV [6]; Experiment 4-Day 11, AZT 0.08 μM
  mean RT value: 1 cpm/10^6 cells × 10^3
[7]
  activity against any viruses used in their tests: no appreciable activity
[8]
  EC50: 5 nM

From US5064946A, “Therapeutic nucleosides” (priority 1987, dated 1991)
